According to patent US20250059174A1, “Pharmaceutical Compounds and Compositions as C-Kit Kinase Inhibitors” (Enanta Pharmaceuticals, Inc., priority 2023, published 2025):

Tests used:
[1] = biological target: Recombinant human c-KIT kinase (Homo sapiens (Human), UniProt P10721); assay: c-KIT kinase chemiluminescence assay (ADP-Glo); type: biochemical; conditions: ATP 50 μM
In short: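 Recombinant human c-KIT preincubated 30 min at RT in 40 mM Tris pH 7.5, 20 mM MgCl2, 0.1 mg/mL BSA, 50 μM DTT, then reacted 2 h at RT with ATP and polyEY substrate. ADP-Glo luminescence readout; activity normalized to high/low controls, IC50 and Hill coefficient from inhibitor-versus-normalized-response fit.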

[2] = system: M-07e cells; assay: M-07e cellular assay (SCF-mediated cell proliferation); type: cell-based; conditions: Homo sapiens, 72 hours, CellTiter Glo
In short: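 Readout came from CellTiter Glo after 72 h of compound treatment in SCF (EC90)-stimulated, pre-starved M-07e cells at 37 °C.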

Sequence of Recombinant human c-KIT kinase (P10721 26-976): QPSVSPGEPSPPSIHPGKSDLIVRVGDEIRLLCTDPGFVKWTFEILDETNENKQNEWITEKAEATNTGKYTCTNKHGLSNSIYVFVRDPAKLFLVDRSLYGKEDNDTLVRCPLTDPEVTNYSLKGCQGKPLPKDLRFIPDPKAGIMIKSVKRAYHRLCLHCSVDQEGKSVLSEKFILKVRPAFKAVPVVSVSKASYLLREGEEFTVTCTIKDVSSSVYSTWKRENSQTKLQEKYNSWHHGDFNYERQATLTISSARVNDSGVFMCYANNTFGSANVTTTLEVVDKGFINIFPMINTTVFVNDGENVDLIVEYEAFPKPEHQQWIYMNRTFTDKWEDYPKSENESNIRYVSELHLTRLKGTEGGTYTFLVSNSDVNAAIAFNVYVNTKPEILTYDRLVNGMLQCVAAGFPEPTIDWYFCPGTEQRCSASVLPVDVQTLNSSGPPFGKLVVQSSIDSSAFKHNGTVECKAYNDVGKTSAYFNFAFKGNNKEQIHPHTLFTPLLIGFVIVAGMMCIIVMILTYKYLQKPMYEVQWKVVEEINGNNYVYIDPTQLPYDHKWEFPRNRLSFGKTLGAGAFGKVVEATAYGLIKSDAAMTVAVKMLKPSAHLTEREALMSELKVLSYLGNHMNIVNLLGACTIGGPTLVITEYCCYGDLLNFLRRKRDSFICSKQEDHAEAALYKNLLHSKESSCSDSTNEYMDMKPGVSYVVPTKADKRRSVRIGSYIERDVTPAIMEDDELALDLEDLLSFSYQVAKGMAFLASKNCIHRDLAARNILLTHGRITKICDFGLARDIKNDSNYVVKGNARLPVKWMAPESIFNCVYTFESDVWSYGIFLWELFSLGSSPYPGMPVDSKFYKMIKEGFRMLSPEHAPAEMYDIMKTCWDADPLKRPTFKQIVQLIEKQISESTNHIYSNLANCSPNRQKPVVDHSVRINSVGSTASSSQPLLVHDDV

| SMILES | IC50 [1] | EC50 [2] |
| --- | --- | --- |
| Cc1ccc(-c2noc([C@H]3C[C@@H]3F)n2)cc1NC(=O)c1cnn2ccc(N3CC4(CN(CC(F)(F)F)C4)C3)cc12 [Example 177] | < 100 nM | < 100 nM |
| Cc1ccc(-c2noc([C@H]3C[C@@H]3F)n2)cc1NC(=O)c1cnn2ccc(N)cc12 [Example 92] | < 100 nM | < 100 nM |
| Cc1ccc(-c2noc([C@H]3C[C@@H](OC(F)F)C3)n2)cc1NC(=O)c1cnn2ccc(N3CC4(CCN(CC(F)(F)F)C4)C3)cc12 [Example 253] | 100 to 1000 nM | 100 to 1000 nM |
| Cc1ncc(-c2noc([C@H]3C[C@@H](OC(F)(F)F)C3)n2)cc1NC(=O)c1cnn2cc(-c3cn(CC(C)(C)O)nn3)ccc12 [Example 132-10] | 100 to 1000 nM | < 100 nM |
| Cc1ncc(-c2ncc(C3CC3)cn2)cc1NC(=O)c1cnc(-c2ccc3c(c2)CC(=O)N3)o1 [Example 361] | 100 to 1000 nM | 100 to 1000 nM |
| Cc1ccc(-c2noc([C@H]3C[C@@H]3F)n2)cc1NC(=O)c1cnn2ccc(-c3cn(C45CC(C(F)(F)F)(C4)C5)nn3)cc12 [Example 126] | < 100 nM | < 100 nM |
| Cc1ccc(-c2noc([C@H]3C[C@@H](OC(F)F)C3(C)C)n2)cc1NC(=O)c1cnn2ccc(N3CC4(CCN(CC(F)F)C4)C3)cc12 [Example 255] | < 100 nM | 100 to 1000 nM |
| Cc1ccc(-c2noc([C@H]3C[C@@H]3F)n2)nc1NC(=O)c1cnn2ccc(N3CC4(COC4)C3)cc12 [Example 261] | 100 to 1000 nM | 100 to 1000 nM |
| Cc1ccc(-c2noc([C@H]3C[C@@H]3F)n2)cc1NC(=O)c1cnc(-c2ccc3c(c2)C2(CCNCC2)C(=O)N3)o1 [Example 308-9] | 100 to 1000 nM | > 1000 nM |
| Cc1ccc(-c2noc([C@H]3C[C@@H]3F)n2)cc1NC(=O)c1cnn2ccc(N3CC4(C3)CC(C)(O)C4)cc12 [Example 181] | < 100 nM | < 100 nM |
| Cc1ccc(-c2noc([C@H]3C[C@@H](OC(F)F)C3)n2)cc1NC(=O)c1cnn2cc(-c3cn(C(F)F)nn3)ccc12 [Example 275] | < 100 nM | < 100 nM |
| Cc1ccc(-c2noc([C@H]3C[C@@H]3F)n2)cc1NC(=O)c1ccc2[nH]c(=O)[nH]c2c1 [Example 98-7] | > 1000 nM | > 1000 nM |
| Cc1ccc(-c2noc([C@H]3C[C@@H]3F)n2)cc1NC(=O)c1cnn2ccc(N3CC4(CCC4)C3)cc12 [Example 227] | < 100 nM | 100 to 1000 nM |
| Cc1ccc(-c2noc([C@H]3C[C@@H]3F)n2)cc1NC(=O)c1cnn2ccc(O[C@@H]3CCOC3)cc12 [Example 220] | < 100 nM | 100 to 1000 nM |
| Cc1ccc(-c2noc([C@H]3C[C@@H]3F)n2)cc1NC(=O)c1cnc(-c2ccccn2)o1 [Example 296] | > 1000 nM | > 1000 nM |
| Cc1ccc(-c2noc([C@H]3C[C@@H]3F)n2)cc1NC(=O)c1cnc(-c2ccc(C(C)(C)O)s2)o1 [Example 308] | > 1000 nM | > 1000 nM |

| SMILES | IC50 [1] | EC50 [2] |
| --- | --- | --- |
| Cc1ncc(-c2ncc(OC(F)(F)F)cn2)cc1NC(=O)c1cnc(-c2ccc3c(c2)CC(=O)N3)o1 [Example 358, N-(2-methyl-5-(5-(trifluoromethoxy)pyrimidin-2-yl)pyridin-3-yl)-2-(2-oxoindolin-5-yl)oxazole-5-carboxamide] | > 1000 nM | 100 to 1000 nM |
| Cc1ccc(-c2noc([C@H]3C[C@@H](OC(F)(F)F)C3)n2)cc1NC(=O)c1cnn2ccc(N3CC4CC(C3)O4)cc12 [Example 256] | < 100 nM | < 100 nM |
| COC1CC2(C1)CN(c1ccn3ncc(C(=O)Nc4cc(-c5noc([C@H]6C[C@@H]6F)n5)ccc4C)c3c1)C2 [Example 186] | < 100 nM | < 100 nM |
| Cc1ccc(-c2noc([C@H]3C[C@@H]3F)n2)cc1NC(=O)c1cnn2ccc(O[C@H]3CCOC3)cc12 [Example 221] | < 100 nM | 100 to 1000 nM |
| C=CCC1c2ccccc2-c2ncc(C(=O)Nc3cc(-c4noc([C@H]5C[C@@H]5F)n4)ccc3C)n21 (stereo partly drawn) [Example 103] | 100 to 1000 nM | 100 to 1000 nM |
| Cc1ccc(-c2noc([C@H]3C[C@@H]3F)n2)cc1NC(=O)c1cn2ncsc2n1 [Example 97] | > 1000 nM | > 1000 nM |
| Cc1ccc(-c2noc([C@H]3C[C@@H]3F)n2)cc1NC(=O)c1cnn2cc(Cl)c(Br)cc12 [Example 73] | > 1000 nM | > 1000 nM |
| Cc1ccc(-c2noc([C@H]3C[C@@H]3F)n2)cc1NC(=O)c1cnn2ccc(-c3cnn(CCO)c3)cc12 [Example 138] | < 100 nM | < 100 nM |
| Cc1ccc(-c2noc([C@H]3C[C@@H]3F)n2)cc1NC(=O)c1cnn2ccc(N3CC4(C3)CC(O)(C(F)(F)F)C4)cc12 [Example 233] | < 100 nM | < 100 nM |
| COc1ccc(-c2ccn3ncc(C(=O)Nc4cc(-c5noc([C@H]6C[C@@H]6F)n5)ccc4C)c3c2)c(C)n1 [Example 171-20] | < 100 nM | < 100 nM |
| Cc1ccc(-c2noc([C@H]3C[C@@H]3F)n2)cc1NC(=O)c1cnn2ccc(-c3cnc(N(C)C)nc3)cc12 [Example 156] | < 100 nM | < 100 nM |
| Cc1ncc(-c2ncc(C(F)(F)F)cn2)cc1NC(=O)c1cnn2ccc(N3CC4(C3)CC(O)(C(F)F)C4)cc12 [Example 328] | 100 to 1000 nM | < 100 nM |
| Cc1ccc(-c2noc([C@H]3C[C@@H]3F)n2)cc1NC(=O)c1cnn2ccc(N3CC(CO)(CCl)C3)cc12 [Example 182] | < 100 nM | < 100 nM |
| Cc1ccc(-c2noc([C@H]3C[C@@H](OC(F)(F)F)C3)n2)cc1NC(=O)c1cnn2ccc(N3CC4(CCN(CC(F)F)C4)C3)cc12 [Example 251] | 100 to 1000 nM | 100 to 1000 nM |
| Cc1ccc(-c2noc([C@H]3C[C@@H]3F)n2)cc1NC(=O)c1cnc(-c2ccc3oc(=O)[nH]c3c2)o1 [Example 307] | > 1000 nM | 100 to 1000 nM |

More lines, main results first:

| IC50 [1] | SMILES | EC50 [2] |
| --- | --- | --- |
| < 100 nM | Cc1ncc(-c2noc([C@H]3C[C@@H](OC(F)(F)F)C3)n2)cc1NC(=O)c1cnn2ccc(N3CC4(C3)CC(O)(C(F)F)C4)cc12 [Example 281-45] | < 100 nM |
| < 100 nM | Cc1ccc(-c2noc([C@H]3C[C@@H]3F)n2)cc1NC(=O)c1cnn2ccc(N3CC4(CN(C(=O)C5CC(F)(F)C5)C4)C3)cc12 [Example 241-12] | < 100 nM |
| > 1000 nM | Cc1ccc(-c2noc([C@H]3C[C@@H]3F)n2)cc1NC(=O)c1cnc(-n2cccn2)o1 [Example 308-5] | > 1000 nM |
| < 100 nM | Cc1ccc(-c2noc([C@H]3C[C@@H]3F)n2)cc1NC(=O)c1cnn2ccc(N3CCN(C(=O)C4CC4)[C@H](C)C3)cc12 [Example 241-5] | < 100 nM |
| > 1000 nM | Cc1ncc(-c2noc(C3CN(C(=O)[C@H]4C[C@@H]4F)C3)n2)cc1NC(=O)c1cnn2ccc(N3CC4(COC4)C3)cc12 [Example 281-80] | > 1000 nM |
| 100 to 1000 nM | Cc1sc(-c2noc(C3CN(C(=O)C4(F)CC4)C3)n2)cc1NC(=O)c1cnn2ccc(N3CC4(C3)CC(O)(C(F)F)C4)cc12 [Example 281-129] | 100 to 1000 nM |
| 100 to 1000 nM | Cc1ccc(-c2noc([C@H]3C[C@@H]3F)n2)cc1NC(=O)c1cnc(-c2cccc3[nH]c(=O)[nH]c23)o1 [Example 308-34] | > 1000 nM |
| 100 to 1000 nM | Cc1sc(-c2noc([C@H]3C[C@@H](OC(F)(F)F)C3)n2)cc1NC(=O)c1cnn2ccc(N3CC4(COC4)C3)cc12 [Example 281-113] | 100 to 1000 nM |
| < 100 nM | Cc1ccc(-c2noc(C3CC4(C3)CC(F)(F)C4)n2)cc1NC(=O)c1cnn2ccc(N3CC4(COC4)C3)cc12 [Example 281-2] | < 100 nM |
| 100 to 1000 nM | Cc1ccc(-c2noc([C@H]3C[C@@H]3F)n2)cc1NC(=O)c1cnc(-c2ccc(F)c3[nH]ccc23)o1 [Example 308-42] | 100 to 1000 nM |
| > 1000 nM | Cc1ncc(-c2noc(C3CN(C(=O)[C@H]4C[C@@H]4F)C3)n2)cc1NC(=O)c1cnn2ccc(N3CC4(C3)CC(O)(C(F)F)C4)cc12 [Example 281-79] | > 1000 nM |
| 100 to 1000 nM | Cc1ccc(-c2noc(N3CC(F)(F)C3)n2)cc1NC(=O)c1cnn2ccc(N3CC4(COC4)C3)cc12 [Example 281-81] | < 100 nM |
| 100 to 1000 nM | Cc1ncc(-c2noc([C@H]3C[C@@H]3F)n2)cc1NC(=O)c1cnn2ccc(N3CC4(C3)CC(O)(C(F)F)C4)cc12 [Example 281-63] | < 100 nM |
| > 1000 nM | Cc1ccc(-c2noc([C@H]3C[C@@H]3F)n2)cc1NC(=O)c1cnn2ccc(N3CC(COCc4ccccc4)(C(=O)OCc4ccccc4)C3)cc12 [Example 241-13] | > 1000 nM |
| 100 to 1000 nM | [2H]C([2H])([2H])n1nnc(-c2cnc(C)c(NC(=O)c3cnn4ccc(N5CC6(C5)CC(O)(C(F)F)C6)cc34)c2)n1 [Example 312-4] | < 100 nM |
| 100 to 1000 nM | Cc1ncc(-c2noc([C@@H]3CN(C(=O)C(C)(F)F)[C@H]3C)n2)cc1NC(=O)c1cnn2ccc(N3CC4(C3)CC(O)(C(F)F)C4)cc12 [Example 281-13] | 100 to 1000 nM |
| 100 to 1000 nM | Cc1ncc(-c2noc([C@H]3C[C@](O)(C(F)(F)F)C3)n2)cc1NC(=O)c1cnn2ccc(N3CC4(C3)CC(O)(C(F)F)C4)cc12 [Example 281-38] | < 100 nM |
| 100 to 1000 nM | Cc1ccc(-c2noc(C3CN(C(=O)[C@H]4C[C@@H]4F)C3)n2)cc1NC(=O)c1cnn2ccc(N3CC4(COC4)C3)cc12 [Example 281-32] | 100 to 1000 nM |
| < 100 nM | CCOC(=O)N1CC(c2nc(-c3ccc(C)c(NC(=O)c4cnn5ccc(N6CC7(COC7)C6)cc45)c3)no2)C1 [Example 281-110] | < 100 nM |
| < 100 nM | Cc1ccc(-c2noc([C@H]3C[C@](O)(C(F)(F)F)C3)n2)cc1NC(=O)c1cnn2ccc(N3CC4(COC4)C3)cc12 [Example 281-31] | < 100 nM |
